# Experimental data as given in patent publication US20030013643A1, “Prevention and treatment of streptococcal and staphylococcal infection” (priority 2000, published 2003).
# Tests used:
# GAS = GAS attachment to murine keratinocyte cell line PAM2.12 with exogenous hyaluronic acid; format: cell-based, Streptococcus pyogenes
# Procedure: For bacterial adherence assays, keratinocytes were seeded at 10^5 cells per well in collagen-coated tissue culture wells (Nalge Nunc International, Naperville, Ill.), incubated for 3 days at 34° C. in 8% CO2, washed, and overlaid with medium containing 10^6 CFU of GAS per well. After incubation for 1 hour at 34° C. in 8% CO2 the keratinocyte monolayers were washed twice to remove nonadherent bacteria, then the number of cell-associated bacteria was determined by quantitative culture after releasing the keratinocytes with try spin and lysing them in sterile water, experiments testing the effects of exogenous hyaluronic acid on GAS adherence were performed using the mouse keratinocyte cell line, PAM 2.12 (Song, I. S. 2000, Exp. Dermatol. 9:42-52). Cells were seeded in collagen-coated tissue culture wells at 10^5 cells per well, cultured for 3 days at 37° C. in 5% CO2, then inoculated with 10^6 CFU of GAS per well in medium containing exogenous hyaluronic acid (from rooster comb, Sigma Chemicals, St. Louis, Mo.), no inhibitor, or a control polysaccharide, alginic acid, a high-molecular-weight polymer of mannuronic acid and guluronic acid (Protonal Durvillea Alginate, Pronova. Biopolymer, Inc., Portsmouth, N.H.). Cells were incubated for 45 minutes at 37° C. in 5% CO2, then processed for enumeration of adherent bacteria as described above. In experiments to test whether exogenous hyaluronic acid could promote dissociation of GAS attached to keratinocytes, GAS were allowed to attach to keratinocytes in the absence of inhibitor; after 45 minutes, the medium was removed and replaced with fresh medium containing hyaluronic acid, no inhibitor, or alginic acid. After 45 minutes of incubation, the number of adherent bacteria was enumerated as described above.
# To investigate the specificity of the interaction between the GAS capsule and CD44 on epithelial cells, the ability of exogenous hyaluronic acid to compete with GAS for binding to murine keratinocytes was examined. Addition of exogenous hyaluronic acid to concentration 1 mg/ml[…], inhibited GAS attachment to the murine keratinocyte cell line PAM2.12 by >95% (P<0.03, FIG. 5). A concentration of 1 /ml alginic acid, another high molecular weight acidic polysaccharide, had no effect, supporting the hypothesis that adherence depends on a specific interaction between the GAS hyaluronic acid capsule and CD44 .
# In addition to the 1 mg/ml concentration of hyaluronic acid, additional trials were performed as indicated above, with a range of concentrations of hyaluronic acid added to the cells. The concentrations tested included 4 mg/ml, 2 mg/ml, 1 mg/ml, 0.75 mg/ml, 0.5 mg/ml, 0.25 mg/ml and 0.1 mg/ml. The hyaluronic acid concentrations from 4 mg/ml to 0.25 mg/ml blocked GAS binding by greater than 70%. Hyaluronic acid concentrations from 4 mg/ml to 0.5 mg/ml blocked GAS binding by greater than 80% (FIG. 6).
# [1] = tested on: Group A Streptococcus (GAS, strain 950771); assay: Bacterial binding to human keratinocyte monolayers, GAS; format: cell-based; conditions: 1 mg/ml pre-incubation; multiplicity of infection 10; 1 hour
# Procedure: (§1) Keratinocyte monolayers were prepared as descibed above in Methods section and pre-incubated with 1 mg/ml alginate (AL, solid bars) or 1 mg/ml hyaluronic acid (HA, hatched bars) prior to surface inoculation (as described above in Methods) with either Group A Streptococcus (GAS, strain 950771), Group B Streptococcus (GBS, strain 515), Streptococcus pneumoniae (S. pneumo, type 6), or Staphylococcus aureus (S. aureus, type 8) at a multiplicity of infection of 10 bacteria per keratinocyte for 1 hour.
# [2] = tested on: Staphylococcus aureus (S. aureus, type 8); assay: Bacterial binding to human keratinocyte monolayers, S. aureus; format: cell-based; conditions: 1 mg/ml pre-incubation; multiplicity of infection 10; 1 hour
# Procedure: as §1
substance,measurement,setting,value
hyaluronic acid,reduction in bacterial attachment,"GAS; added up to 45 minutes after adding GAS to the keratinocytes, P<0.03",> 90%
same,reduction of GAS attachment,"GAS; addition delayed for 2 hours, P<0.03",70-80%
same,blocking of GAS binding,GAS; concentrations from 4 mg/ml to 0.25 mg/ml,greater than 70%
same,blocking of GAS binding,GAS; concentrations from 4 mg/ml to 0.5 mg/ml,greater than 80%
same,inhibition of GAS attachment to PAM2.12,"GAS; hyaluronic acid 1 mg/ml added with GAS, P<0.03",> 95%
same,inhibition of binding,[1],more than 80%
same,inhibition of binding,[2],more than 80%
